{
  "source": "patent US20120225417A1",
  "about": "“Methods, Compositions and Kits for the Evaluation and Preservation of Sperm” (I'Alliance Boviteq Inc., priority 2011, published 2012)",
  "type_in_all_cases": "biochemical",
  "key": {"[1]": {"test_system": "3′-5′ cAMP-PDE activity in bovine spermatozoa", "test": "3′-5′ cAMP-PDE assay with family-specific PDE inhibitors in bovine spermatozoa", "conditions": "for Percentage of sensitive PDE activity, Cryo (B): cryopreserved bovine spermatozoa; for Percentage of sensitive PDE activity, Cryo (B) / Percentage of sensitive PDE activity, Fresh (A): Cil 10 μM, Rol 10 μM, Papa 400 nM", "description": "The semen was obtained from different Holstein bulls. The fresh ejaculated semen was kept in an insulated thermos flask, at 18° C., during transportation to the laboratory and processed within 3 hours after collection. The cryopreserved semen was obtained at the Centre d'Insémination […] du Québec (CIAQ) […]. The cryopreserved straws of semen were prepared according to CIAQ procedures. […] After cutting one end of the straw the semen was collected in a 15 ml falcon while cutting the other end. From this point fresh and cryopreserved semen were processed similarly. Approximately 50 μL of the semen was added to 5 mL of Talp-BSA medium in a 15 mL falcon tube to wash the spermatozoa. After centrifugation (280×g, 10 min, room temperature), the remaining pellet of approximately 100 μL was resuspended in Talp-BSA medium (500 μl for the fresh and 200 μl for two straws) to reach a concentration of 1×10^6 cells/10 μL. The samples were then vortex-agitated for 30 sec and kept on the ice until ready to run the assay. The concentration of sperm cells was measured according to hemacytometer method. The cAMP enzymatic assay (PDE assay) was conducted as previously described ([…]. et al., (2006). […] J. et al., (1979). Adv Cyclic Nucleotide Res 10, 69-92) with minor modifications. […] Measurements were also performed in the presence of PDE inhibitors: […] Cilostamide and Rolipram were purchased from Biomol. […] Each PDE assay was performed in triplicate for each experiment and each experiment was repeated at least three times. As described ([…]. et al., (2009). […] IBMX-sensitive PDE5 and PDE6 and IBMX-insensitive PDE9 activities are absent from these groups because cGMP is the specific substrate and then are not detected in the cAMP-PDE assay. […] J Dairy Sci 92, 3757-3765; […]., et al. (2007). Endocrinology 148, 1858-1867; Siuciak, J. A. et al., (2006). Neuropharmacology 51, 386-396)."}, "[2]": {"test_system": "3′-5′ cAMP-PDE activity in bovine seminal plasma", "test": "3′-5′ cAMP-PDE assay with family-specific PDE inhibitors in bovine seminal plasma", "conditions": "thawed bovine seminal plasma, papaverine 400 nM (FIG. 8)", "description": "Fresh ejaculated bovine sperm, at known concentrations, was transported for three hours at 18° C. Upon arrival specimens were centrifuged at 400×g during 10 minutes at room temperature to gently pull down spermatozoa. Supernatant was transferred and centrifuged again at 6 000×g at 4° C. during 20 minutes to pull down any remaining spermatozoa. Supernatant was then transferred and centrifuged at 6 000×g at 4° C. during 20 minutes to remove any remaining debris. Seminal plasma (SP) samples were kept on ice until used for PDE assay and stored at −80° C. for further characterization.\n(§1) The cAMP enzymatic assay (PDE assay) was conducted as previously described (Sasseville, M. et al., (2006). BMC developmental biology 6, 47). Samples were directly subjected to PDE assay. 3′-5′ cAMP-PDE activity was assessed at 34° C. in 200 μL final volume using 1 μM cAMP as substrate (Thompson, W. J. et al., (1979). Adv Cyclic Nucleotide Res 10, 69-92) with minor modifications. […] Knowing the exact concentrations of spermatozoa in each SP sample, total 3′-5′ cAMP-PDE activity was reported as the quantity of cAMP (fMol) hydrolysed per minute per the number of spermatozoa (fMol/min/10^6 spz). […] To determine which PDE family contributes to total 3′-5′ cAMP-PDE activity, the activity measured in the presence of the respective inhibitors was subtracted from the total. […]"}, "[3]": {"test_system": "3′-5′ cAMP-PDE activity in bovine cauda epididymal plasma", "test": "3′-5′ cAMP-PDE assay in bovine cauda epididymal plasma", "conditions": "thawed epididymal plasma 0.5 μL; Papaverine (400 μM) as printed (FIG. 5)", "description": "Epididymis from sexually mature bulls was obtained from a local slaughterhouse. Immediately after slaughtering, testicles were kept on ice and brought to the laboratory within 3 hours. Epididymis was dissected and cleared from connective tissues. As already described (Frenette, G. et al., (2002). Biol Reprod 67, 308-313), fluid from the cauda epididymis was collected by retrograde flushing. Epididymal plasma was isolated according to the same centrifugations steps than the seminal plasma as described below.\nas §1"}},
  "data": [
    {"smiles": "COc1ccc(Cc2nccc3cc(OC)c(OC)cc23)cc1OC", "note": "[Papaverine]", "values": [
      {"measurement": "Percentage of family specific sensitive PDE activity, 3 h Egg yolk", "setting": "[1]; bovine spermatozoa after 3 h in egg yolk based cryoprotectant at 18° C.", "result": 60, "unit": "%"},
      {"measurement": "Percentage of family specific sensitive PDE activity, 3 h Liquid semen", "setting": "[1]; bovine spermatozoa after 3 h in liquid semen extender at 18° C.", "result": 56, "unit": "%"},
      {"measurement": "Percentage of family specific sensitive PDE activity, 3 h 4° C.", "setting": "[1]; bovine spermatozoa after 3 h in seminal plasma at 4° C.", "result": 60, "unit": "%"},
      {"measurement": "Percentage of family specific sensitive PDE activity, 3 h 18° C.", "setting": "[1]; bovine spermatozoa after 3 h in seminal plasma at 18° C.", "result": 59, "unit": "%"},
      {"measurement": "Percentage of family specific sensitive PDE activity, Fresh", "setting": "[1]; bovine spermatozoa rapidly after ejaculation (0 h)", "result": 57, "unit": "%"},
      {"measurement": "Percentage of total PDE activity sensitive to the inhibitor", "setting": "[1]; bovine spermatozoa, 1 μM cAMP, IBMX 1 mM, cilostamide 10 μM, rolipram 10 μM, papaverine 400 nM (FIG. 12B)", "result": 55, "unit": "%"},
      {"measurement": "Percentage of sensitive PDE activity, Cryo (B)", "setting": "[1]; IBMX 1 mM", "result": 50, "unit": "%"},
      {"measurement": "Percentage of sensitive PDE activity, Cryo (B)", "setting": "[1]; IBMX 1 mM, listed as papaverine", "result": 49.8, "unit": "%"},
      {"measurement": "Share of 3′-5′ cAMP-PDE activity inhibited (papaverine-sensitive)", "setting": "[1]; freshly ejaculated bovine spermatozoa, papaverine 400 nM (FIG. 21)", "result": "more than 50%"},
      {"measurement": "Percentage of sensitive PDE activity, Fresh (A)", "setting": "[1]; freshly ejaculated bovine spermatozoa, IBMX 1 mM", "result": 57, "unit": "%"},
      {"measurement": "Percentage of sensitive PDE activity, Fresh (A)", "setting": "[1]; freshly ejaculated bovine spermatozoa, IBMX 1 mM, listed as papaverine", "result": 57.1, "unit": "%"},
      {"measurement": "Share of PDE activity in bovine seminal plasma that is papaverine-sensitive", "setting": "[2]", "result": "more than 50%"},
      {"measurement": "Papaverine-sensitive PDE activity in bovine epididymal fluid (in words)", "setting": "[3]", "result": "low"}
    ]}
  ]
}
